Our source for the inhibition values is US6329421A, “Diaryl bicyclic heterocycles as inhibitors of cyclooxygenase-2” (Merck Frosst Canada & Co., priority 1997, dated 2001).

One test concerns the target T1, cyclooxygenase-2 (Homo sapiens, UniProt P35354).
T1 construct: human osteosarcoma 143 cells (which specifically express cyclooxygenase-2); endogenous in cells; host or cells: human osteosarcoma 143 cells
T1 sequence (P35354 18-604): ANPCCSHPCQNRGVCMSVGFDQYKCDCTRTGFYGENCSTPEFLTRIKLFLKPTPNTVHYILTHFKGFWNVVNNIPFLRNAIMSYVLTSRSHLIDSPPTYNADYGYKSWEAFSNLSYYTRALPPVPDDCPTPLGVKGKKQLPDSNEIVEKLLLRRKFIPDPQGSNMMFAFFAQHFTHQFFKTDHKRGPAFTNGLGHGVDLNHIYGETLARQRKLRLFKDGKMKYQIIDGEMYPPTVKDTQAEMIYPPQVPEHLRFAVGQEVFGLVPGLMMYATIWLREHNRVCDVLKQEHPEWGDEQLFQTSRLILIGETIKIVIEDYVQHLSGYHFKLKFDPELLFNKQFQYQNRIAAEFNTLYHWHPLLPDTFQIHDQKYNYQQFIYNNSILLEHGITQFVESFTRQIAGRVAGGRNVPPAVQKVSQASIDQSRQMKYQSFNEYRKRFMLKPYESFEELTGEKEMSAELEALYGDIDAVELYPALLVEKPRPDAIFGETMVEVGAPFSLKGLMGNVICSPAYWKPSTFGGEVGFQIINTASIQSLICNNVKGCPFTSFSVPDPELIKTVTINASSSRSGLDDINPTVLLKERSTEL
As to the kind of experiment: Inhibition of cyclooxygenase activity: Cox-2 (PGE2 production in response to arachidonic acid, radioimmunoassay; human osteosarcoma 143 cells). Type of test: cell-based. The note with it: read-out: Cox-2% inhib.; for inhibition at 0.1 µM: Conc. 100 nM; for inhibition at 1 µM: Conc. 1000 nM. The method, then:
(§1) Compounds were tested as inhibitors of cyclooxygenase activity in whole cell and microsomal cyclooxygenase assays. Both of these assays measured prostaglandin E2 synthesis in response to arachidonic acid, using a radioimmunoassay. Cells used for whole cell assays, and from which microsomes were prepared for microsomal assays, were human osteosarcoma 143 cells (which specifically express cyclooxygenase-2) and human U-937 cells (which specifically express cyclooxygenase-1). In these assays, 100% activity is defined as the difference between prostaglandin E2 synthesis in the absence and presence of arachidonate addition. Compounds of the present invention are inhibitors of cyclooxygenase-2 and are thereby useful in the treatment of cyclooxygenase-2 mediated diseases as enumerated above. The activities of the compounds against cyclooxygenase may be seen in the representative results shown below. In the assay, inhibition is determined by measuring the amount of prostaglandin E2 (PGE2) synthesized in the presence of arachidonic acid, cyclooxygenase-1 or cyclooxygenase-2 and a putative inhibitor. The IC50 values represent the concentration of putative inhibitor required to return PGE2 synthesis to 50% of that obtained as compared to the uninhibited control. For purposes of this specification, a compound is a selective inhibitor of COX-2 over COX-1 if the ratio of IC50 's for COX-1: COX-2 is 100 or greater, preferably 500 or greater. The results for inhibition of PGE2 production may be seen in Table III.

In a further test the target is T2, cyclooxygenase-1 (Homo sapiens, UniProt P23219).
T2 construct: human U-937 cells (which specifically express cyclooxygenase-1); endogenous in cells; host or cells: human U-937 cells
T2 sequence (P23219 24-599): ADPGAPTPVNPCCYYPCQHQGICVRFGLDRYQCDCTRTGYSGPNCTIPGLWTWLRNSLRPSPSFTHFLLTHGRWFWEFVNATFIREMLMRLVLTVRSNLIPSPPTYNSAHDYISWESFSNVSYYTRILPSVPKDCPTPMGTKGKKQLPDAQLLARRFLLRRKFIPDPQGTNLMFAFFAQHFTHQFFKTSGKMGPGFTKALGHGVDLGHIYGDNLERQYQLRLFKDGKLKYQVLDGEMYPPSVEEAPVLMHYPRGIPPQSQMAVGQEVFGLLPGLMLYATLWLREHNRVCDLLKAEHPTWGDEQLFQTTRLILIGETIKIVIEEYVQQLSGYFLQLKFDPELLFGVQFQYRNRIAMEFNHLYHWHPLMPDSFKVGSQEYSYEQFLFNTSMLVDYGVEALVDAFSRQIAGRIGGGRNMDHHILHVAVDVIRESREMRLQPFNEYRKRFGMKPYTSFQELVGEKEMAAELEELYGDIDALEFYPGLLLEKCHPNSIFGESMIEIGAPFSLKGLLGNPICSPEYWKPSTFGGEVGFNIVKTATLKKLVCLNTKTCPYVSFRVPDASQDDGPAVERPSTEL
As to the kind of experiment: Inhibition of cyclooxygenase activity: Cox-1 (PGE2 production in response to arachidonic acid, radioimmunoassay; human U-937 cells). The class given is cell-based. The note with it: read-out: Cox-1% inhib.; for inhibition at 0.1 µM: Conc. 100 nM; for inhibition at 1 µM: Conc. 1000 nM. The method, then: as §1

Consider `CS(=O)(=O)c1ccc(-c2c(-c3ccccc3)oc3ccccc23)cc1` [Example 1, 3-(4-(Methylsulfonyl)phenyl)-2-phenylbenzo[b]furan], for which the inhibition at 0.1 µM was 94% on cyclooxygenase-2 and 0% at cyclooxygenase-1.

In the case of `CS(=O)(=O)c1ccc(-c2c(-c3ccccc3)sc3ccccc23)cc1` [Example 2, 3-(4-(Methanesulfonyl)phenyl)-2-phenylbenzo[b]thiophene], the results for the inhibition at 1 µM at cyclooxygenase-2 and at cyclooxygenase-1 were 17% and 3%, respectively.

On to `CS(=O)(=O)c1ccc(C2=C(c3ccccc3)C(=O)c3ccccc32)cc1` [Example 3, 3-(4-(Methylsulfonyl)phenyl)-2-phenylinden-1-one], for which the values for the inhibition at 0.1 µM on cyclooxygenase-2 and at cyclooxygenase-1 were 80% and 5%, respectively.

Consider `CS(=O)(=O)c1ccc(-c2c(-c3ccc(F)cc3)[nH]c3ccccc23)cc1` [Example 4, 2-(4-Fluorophenyl)-3-(4-(methylsulfonyl)phenyl)indole], for which, at cyclooxygenase-2 (Conc. 10 nM), the inhibition at 0.01 µM is 58%. The inhibition at 1 µM at cyclooxygenase-1 was found to be 0%.

With `CS(=O)(=O)c1ccc(-c2[nH]c3ccccc3c2-c2ccc(F)cc2)cc1` [Example 5, 3-(4-Fluorophenyl)-2-(4-(methylsulfonyl)phenyl)indole], the results for the inhibition at 0.1 µM on cyclooxygenase-2 and on cyclooxygenase-1 were 86% and 21%, respectively.

Regarding `CS(=O)(=O)c1ccc(-c2c(-c3ccc(F)cc3)sc3c2COC3=O)cc1` [Example 6, 2-(4-Fluorophenyl)-3-(4-(methylsulfonyl)phenyl)-4H-thieno[2,3-c]furan-6-one], the inhibition at 0.015 µM was determined as 50% at cyclooxygenase-2 (Conc. 15 nM) and 0% on cyclooxygenase-1 (Conc. 15 nM).

Turning to `CS(=O)(=O)c1ccc(-c2c(-c3ccc(F)c(F)c3)sc3c2COC3=O)cc1` [Example 7, 2-(3,4-Difluorophenyl)-3-(4-(methylsulfonyl)phenyl)-4H-thieno[2,3-c]-furan-6-one], at cyclooxygenase-2, the inhibition at 0.1 µM came to 64% and the inhibition at 1 µM came out at 100%. The inhibition at 1 µM at cyclooxygenase-1 was determined as 4%.

For the molecule `NS(=O)(=O)c1ccc(-c2c(-c3ccc(F)cc3)sc3c2COC3=O)cc1` [Example 8, 2-(4-Fluorophenyl)-3-(4-(aminosulfonyl)phenyl)-4H-thieno[2,3-c]furan-6-one], on cyclooxygenase-2, the inhibition at 0.1 µM is 42%. In addition, the inhibition at 10 µM on cyclooxygenase-1 (Conc. 10000 nM) was found to be 26%.

Take `NS(=O)(=O)c1ccc(-c2c(-c3ccc(F)c(F)c3)sc3c2COC3=O)cc1` [Example 9, 2-(3,4-Difluorophenyl)-3-(4-(aminosulfonyl)phenyl)4H-thieno-[2,3-c]furan-6-one]: at cyclooxygenase-2, the inhibition at 0.1 µM was found to be 98% and the inhibition at 1 µM was determined as 99%. Further, the inhibition at 1 µM on cyclooxygenase-1 worked out at 21%.

For the molecule `CS(=O)(=O)c1ccc(-c2c(-c3ccccc3)sc3c2CC(=O)OC3)cc1` [Example 10, 3-(4-(Methylsulfonyl)phenyl)-2-phenyl-4,7-dihydro-thieno[2,3-c]pyran-5-one], on cyclooxygenase-2, the inhibition at 0.1 µM was 65%. Besides, the inhibition at 1 µM at cyclooxygenase-2 was determined as 91%; at cyclooxygenase-1 it was 28%.
